Experimental data from patent publication US20260315475A1 (priority 2023, published 2026).
Values joined by “and” are separate entries in the source; they are usually repeats but may differ in a detail not shown here. Identical values can stand only once. Like-named read-outs stand apart in the source and are kept apart here.

Tests used:
[1] = test system: UGT1A1; conditions: role: inhibitor; in vitro; cited from earlier work
[2] = pregnant rabbits, cited from earlier work
[3] = test system: BCRP; conditions: role: inhibitor; clinically relevant concentrations, in vitro; cited from earlier work
[4] = Phase I single-dose open-label pharmacokinetic study in participants with normal hepatic function and varying degrees of hepatic impairment; type: in vivo, human; conditions: for Vd/F / AUC(0-inf) / AUC(0-t) / AUC(0-t) at 24 h / CL/F / Cmax / Tmax / half-life: human, po, 200 mg; for Vd/F / AUC(0-inf) / AUC(0-t) / AUC(0-t) at 24 h / CL/F / Cmax / Tmax / half-life / t1/2 / tlast: plasma; for Vd/F: read-out: Vz/F; for Tmax / tlast: median
Description: The primary objective was to assess the pharmacokinetic (PK) of belumosudil following a single oral dose of belumosudil in participants with mild, moderate, or severe hepatic impairment compared to healthy participants with normal hepatic function.
The secondary objectives were: to evaluate the safety and tolerability of a single oral dose of belumosudil in participants with mild, moderate, or severe hepatic impairment, and in healthy participants with normal hepatic function; to assess the PK of the belumosudil metabolites following a single oral dose of belumosudil in participants with mild, moderate, or severe hepatic impairment compared to healthy participants with normal hepatic function.
Approximately 38 participants were to be enrolled into the following groups based on their hepatic function, as determined according to the Child-Pugh system. • Group 1 (n=approximately 16): matched healthy participants with normal hepatic function • Group 2 (n=8): participants with mild hepatic impairment (Child-Pugh Class A [score of 5 or 6]) • Group 3 (n=8): participants with moderate hepatic impairment (Child-Pugh Class B [score of 7 to 9]) • Group 4 (n=6): participants with severe hepatic impairment (Child-Pugh Class C [score of 10 to 14]).
Healthy participants with normal hepatic function (Group 1) were demographically matched by age (±10 years), sex, and body mass index (BMI; +20%) to participants with hepatic impairment (Groups 2, 3, and 4). Participants with normal hepatic function could be matched to multiple participants across the 3 hepatic impairment groups (mild, moderate, and severe), but could not be matched to more than 1 participant within the same impairment group.
Pharmacokinetic blood samples were obtained from predose until 48 hours postdose (Day 3).
Summary tables, mean (+standard deviation [SD]) figures, overlaying individual figures, and individual figures by hepatic function and time postdose were provided for plasma PK concentrations. Summary tables by hepatic function were provided for all PK parameters, with the exception of terminal phase regression-related diagnostic parameters (λz, λz upper, λ z lower, λz number of points, R2-adj, and % AUCextrap), which were listed only.
All other PK parameters were regarded as secondary and were not participant to inferential statistical analysis.

[5] = single oral 200 mg belumosudil, fed, mild hepatic impairment, geometric mean (CV %)
[6] = single oral 200 mg belumosudil, fed, moderate hepatic impairment, geometric mean (CV %)
[7] = single oral 200 mg belumosudil, fed, normal hepatic function, geometric mean (CV %)
[8] = single oral 200 mg belumosudil, fed, severe hepatic impairment, geometric mean (CV %)
[9] = single oral 200 mg belumosudil, fed, mild hepatic impairment
[10] = single oral 200 mg belumosudil, fed, moderate hepatic impairment
[11] = single oral 200 mg belumosudil, fed, normal hepatic function
[12] = single oral 200 mg belumosudil, fed, severe hepatic impairment

## CC(C)NC(=O)COc1cccc(-c2nc(Nc3ccc4[nH]ncc4c3)c3ccccc3n2)c1 [belumosudil, 2-{3-[4-(1H-indazol-5-ylamino)-2-quinazolinyl]phenoxy}-N-(propan-2-yl) acetamide]
[1]
  UGT1A1 inhibition: inhibitor
[2]; oral
  doses with maternal toxicity (body weight loss and mortality): ≥ 125 mg/kg/day
[2]; oral, spontaneous abortion, post-implantation loss, malformations, decreased fetal weight
  doses with embryo-fetal effects: ≥ 50 mg/kg/day
[2]; organogenesis
  maternal exposure (AUC) causing embryo-fetal mortality and malformations vs patients: less than those in patients at the recommended dose
[3]
  BCRP inhibition: inhibits
[4]; geometric means across participants with hepatic impairment (mild, moderate, severe)
  Vd/F: 76.6 to 105 L
[4]; [5]
  Vd/F: 105 L
  AUC(0-inf): 16000 ng·h/mL
  AUC(0-t): 15800 ng·h/mL
  AUC(0-t) at 24 h: 15400 ng·h/mL
  CL/F: 208 mL/min
  Cmax: 2590 ng/mL
  t1/2: 5.86 h and 5.86 (45.2) h
[4]; [6]
  Vd/F: 76.6 L
  AUC(0-inf): 23700 ng·h/mL
  AUC(0-t): 23100 ng·h/mL
  AUC(0-t) at 24 h: 21300 ng·h/mL
  CL/F: 140 mL/min
  Cmax: 2490 ng/mL
  half-life: 6.3 h
  t1/2: 6.30 (44.4) [7] h
[4]; [7]
  Vd/F: 193 L
  AUC(0-inf): 12800 ng·h/mL
  AUC(0-t): 12000 ng·h/mL
  AUC(0-t) at 24 h: 11300 ng·h/mL
  CL/F: 260 mL/min
  Cmax: 2190 ng/mL
  half-life: 8.58 h
  t1/2: 8.58 (48.8) [13] h
[4]; [8]
  Vd/F: 95.7 L
  AUC(0-inf): 30100 ng·h/mL
  AUC(0-t): 29600 ng·h/mL
  AUC(0-t) at 24 h: 23400 ng·h/mL
  CL/F: 110 mL/min
  Cmax: 2170 ng/mL
  half-life: 10 h
  t1/2: 10.00 (40.7) h
[4]; [9]
  Tmax: 2.98 h
  tlast: 36.0 h
[4]; [10]
  Tmax: 4 h
  tlast: 48.0 h
[4]; [11]
  Tmax: 3.5 h
  tlast: 48.0 h
[4]; [12]
  Tmax: 5.02 h
  tlast: 48.0 h
[4]; one participant with moderate impairment
  concentration profile and exposure: greatly reduced concentration profile and exposure
[4]; two participants with severe impairment
  concentration profiles and exposures: greatly reduced concentration profiles and exposures
